Measured values: patent US12297187B2, “Compound having cyclic structure” (Daiichi Sankyo Company, Limited, priority 2017, dated 2025)

system: IL-10; assay: Measurement of IL-10 increase rate (LPS-induced inflammation in mice, serum IL-10 by ELISA); type: in vivo; details: Mus musculus, 2 h, oral 100 mg/kg in 0.5% methyl cellulose, LPS 0.4 mg/kg i.p. one hour later, serum taken one hour after LPS, % control ratio vs 0.5% methyl cellulose group, read-out: IL10 Increase Rate (%)
Protocol: A test substance was suspended in a 0.5% (w/v) methyl cellulose and orally administered to mice at a dose of 100 mg/kg. One hour later, a lipopolysaccharide (LPS, Sigma-Aldrich, L2630 (trade name)) (0.4 mg/kg) was intraperitoneally administered to induce inflammation. One hour after administration of LPS, blood was taken from the vena cava under anesthesia with isoflurane, placed in a tube containing a serum separating agent, allowed to stand still at room temperature for 20-30 minutes and centrifuged at 4° C. at 12,000 rpm for 5 minutes to obtain the serum. Thereafter, the amount of the IL-10 in the serum was measured by using Mouse IL-10 Quantikine ELISA Kit (R&D systems, M1000B (trade name)) or Mouse IL-10 Immunoassay kit (PerkinElmer, AL502 (trade name)) in accordance with the protocol of the kit. The serum was diluted 10 times with the dilution solution contained in the kit and put in use. IL-10 increase rate (% control ratio) of the compound was calculated in accordance with the following expression: IL-10 increase rate (% control ratio) (IL10 amount in compound administration group)×100/(IL-10 amount in 0.5% (w/v) methyl cellulose administration group)

Row | Structure (SMILES) | response vs control in vivo at 100 mg/kg [%]
1 | Cn1c(COc2cc(C(F)(F)F)ccn2)nnc1[C@H]1CC[C@H](c2cnn([C@H]3CC[C@H](N4CCOCC4)CC3)c2)CC1 [Example 23, 4-[trans-4-(4-{trans-4-[4-Methyl-5-({[4-(trifluoromethyl)pyridin-2-yl]oxy}methyl)-4H-1,2,4-triazol-3-yl]cyclohexyl}-1H-pyrazol-1-yl)cyclohexyl]morpholine] | 232
2 | Cn1c(COc2cc(C(F)(F)F)ccn2)nnc1[C@H]1CC[C@H](c2cnn([C@H]3CC[C@H](N4CC5(COC5)C4)CC3)c2)CC1 [Example 24, 6-[trans-4-(4-{trans-4-[4-Methyl-5-({[4-(trifluoromethyl)pyridin-2-yl]oxy}methyl)-4H-1,2,4-triazol-3-yl]cyclohexyl}-1H-pyrazol-1-yl)cyclohexyl]-2-oxa-6-azaspiro[3.3]heptane] | 257
3 | Cn1c(COc2cc(C(F)(F)F)ccn2)nnc1[C@H]1CC[C@H](c2cnn([C@H]3CC[C@H](N4CC5(CCO5)C4)CC3)c2)CC1 [Example 25, 6-[trans-4-(4-{trans-4-[4-Methyl-5-({[4-(trifluoromethyl)pyridin-2-yl]oxy}methyl)-4H-1,2,4-triazol-3-yl]cyclohexyl}-1H-pyrazol-1-yl)cyclohexyl]-1-oxa-6-azaspiro[3.3]heptane] | 216
4 | Cn1c(COc2cc(C(F)(F)F)ccn2)nnc1[C@H]1CC[C@H](c2cnn([C@H]3CC[C@H](N4CCC5(COC5)C4)CC3)c2)CC1 [Example 26, 6-[trans-4-(4-{trans-4-[4-Methyl-5-({[4-(trifluoromethyl)pyridin-2-yl]oxy}methyl)-4H-1,2,4-triazol-3-yl]cyclohexyl}-1H-pyrazol-1-yl)cyclohexyl]-2-oxa-6-azaspiro[3.4]octane] | 231
5 | Cn1c(COc2cc(C(F)(F)F)ccn2)nnc1[C@H]1CC[C@H](c2cnn([C@H]3CC[C@H](N4CC5(CCOC5)C4)CC3)c2)CC1 [Example 27, 2-[trans-4-(4-{trans-4-[4-Methyl-5-({[4-(trifluoromethyl)pyridin-2-yl]oxy}methyl)-4H-1,2,4-triazol-3-yl]cyclohexyl}-1H-pyrazol-1-yl)cyclohexyl]-6-oxa-2-azaspiro[3.4]octane] | 255
6 | Cn1c(COc2cc(C(F)(F)F)ccn2)nnc1[C@H]1CC[C@H](c2cnn([C@H]3CC[C@H](N4CC(CO)(CO)C4)CC3)c2)CC1 [Example 29, {1-[trans-4-(4-{trans-4-[4-Methyl-5-({[4-(trifluoromethyl)pyridin-2-yl]oxy}methyl)-4H-1,2,4-triazol-3-yl]cyclohexyl}-1H-pyrazol-1-yl)cyclohexyl]azetidine-3,3-diyl}dimethanol] | 111
7 | COC(=O)c1cccc(OCc2nnc([C@H]3CC[C@H](c4cnn([C@H]5CC[C@H](N6CCC6)CC5)c4)CC3)n2C)c1 [Example 30, Methyl 3-{[5-(trans-4-{1-[trans-4-(azetidin-1-yl)cyclohexyl]-1H-pyrazol-4-yl}cyclohexyl)-4-methyl-4H-1,2,4-triazol-3-yl]methoxy}benzoate] | 141
8 | COC(=O)c1cccc(OCc2nnc([C@H]3CC[C@H](c4cnn([C@H]5CC[C@H](N6CC7(COC7)C6)CC5)c4)CC3)n2C)c1 [Example 31, Methyl 3-{[4-methyl-5-(trans-4-{1-[trans-4-(2-oxa-6-azaspiro[3.3]hept-6-yl)cyclohexyl]-1H-pyrazol-4-yl}cyclohexyl)-4H-1,2,4-triazol-3-yl]methoxy}benzoate] | 222
9 | Cn1c(COC2CCCC(C(F)(F)F)C2)nnc1[C@H]1CC[C@H](c2cnn([C@H]3CC[C@H](N4CC5(CCOC5)C4)CC3)c2)CC1 (stereo partly drawn) [Example 32, 2-[trans-4-(4-{trans-4-[4-Methyl-5-({[3-(trifluoromethyl)cyclohexyl]oxy}methyl)-4H-1,2,4-triazol-3-yl]cyclohexyl}-1H-pyrazol-1-yl)cyclohexyl]-6-oxa-2-azaspiro[3.4]octane] | 202
10 | Cn1c(CCn2cccc(C(F)(F)F)c2=O)nnc1[C@H]1CC[C@H](c2cnn([C@H]3CC[C@H](N4CC5(CCOC5)C4)CC3)c2)CC1 [Example 33, 1-{2-[4-Methyl-5-(trans-4-{1-[trans-4-(6-oxa-2-azaspiro[3.4]oct-2-yl)cyclohexyl]-1H-pyrazol-4-yl}cyclohexyl)-4H-1,2,4-triazol-3-yl]ethyl}-3-(trifluoromethyl)pyridin-2(1H)-one] | 144
11 | CN1CCC(c2nnc(-c3ccc(-c4nnc(COc5cccc(C(F)(F)F)c5)n4C)cc3)o2)CC1 [Example 34, 1-Methyl-4-{5-[4-(4-methyl-5-{[3-(trifluoromethyl)phenoxy]methyl}-4H-1,2,4-triazol-3-yl)phenyl]-1,3,4-oxadiazol-2-yl}piperidine] | 202
12 | Cn1c(COc2cccc(Cl)c2)nnc1[C@H]1CC[C@H](c2cc([C@@H]3CC[C@@H](N4CCC4)CO3)on2)CC1 [Example 35, 3-(trans-4-{5-[(2S,5R)-5-(Azetidin-1-yl)tetrahydro-2H-pyran-2-yl]-1,2-oxazol-3-yl}cyclohexyl)-5-[(3-chlorophenoxy)methyl]-4-methyl-4H-1,2,4-triazole] | 184
13 | CC(C)c1cccc(O[C@H](C)c2nnc([C@H]3CC[C@H](C4=NOC5(CCN(C)CC5)C4)CC3)n2C)c1 [Example 36, 8-Methyl-3-[trans-4-(4-methyl-5-{(1R)-1-[3-(propan-2-yl)phenoxy]ethyl}-4H-1,2,4-triazol-3-yl)cyclohexyl]-1-oxa-2,8-diazaspiro[4.5]dec-2-ene] | 230
